The text below walks through data of ChEMBL document CHEMBL1130085, “Substituted 3-(phenylsulfonyl)-1-phenylimidazolidine-2,4-dione derivatives as novel nonpeptide inhibitors of human heart chymase” (J Med Chem, 1997).

The target of one test is Chymotrypsinogen A (Bos taurus, UniProt P00766). In words: Inhibitory activity against bovine pancreas alpha-chymotrypsin in vitro.
Another test has as its target T1, Cathepsin G (Homo sapiens, UniProt P08311).
T1 sequence (P08311 whole entry): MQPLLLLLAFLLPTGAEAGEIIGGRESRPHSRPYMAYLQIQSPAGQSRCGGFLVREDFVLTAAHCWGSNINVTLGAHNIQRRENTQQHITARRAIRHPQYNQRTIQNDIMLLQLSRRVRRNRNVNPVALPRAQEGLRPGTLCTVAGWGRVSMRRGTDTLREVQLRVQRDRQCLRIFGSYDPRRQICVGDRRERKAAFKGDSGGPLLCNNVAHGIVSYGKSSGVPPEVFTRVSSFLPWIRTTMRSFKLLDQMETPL
Kind of test: Inhibitory activity against human neutrophil cathepsin G.

The target of the next test is T2, Chymase (Homo sapiens, UniProt P23946).
T2 sequence (P23946 whole entry): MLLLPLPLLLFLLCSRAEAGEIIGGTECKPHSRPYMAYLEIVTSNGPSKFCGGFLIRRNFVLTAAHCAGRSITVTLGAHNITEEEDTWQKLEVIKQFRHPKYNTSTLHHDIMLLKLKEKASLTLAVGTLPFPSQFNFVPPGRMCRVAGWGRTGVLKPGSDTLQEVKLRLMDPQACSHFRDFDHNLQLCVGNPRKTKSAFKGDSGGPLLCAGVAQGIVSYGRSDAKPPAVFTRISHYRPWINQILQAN
Kind of test: Inhibitory activity against human heart chymase in vitro.

One may read the IC50 as the concentration that gives 50% inhibition.

In the case of `O=C1CN(c2ccc(Cl)c(Cl)c2)C(=O)N1S(=O)(=O)c1ccc(Cl)c(Cl)c1`, the figures for the IC50 at Chymotrypsinogen A, against Cathepsin G and against Chymase were 3.7 µM, 3.7 µM and 0.17 µM, respectively.
Take `O=C1CN(c2ccccc2Cl)C(=O)N1S(=O)(=O)c1ccc(Cl)cc1`: the results for the IC50 against Chymotrypsinogen A, against Cathepsin G and against Chymase were 20 µM, 2 µM and 0.22 µM, respectively.
Turning to `N#Cc1cccc(S(=O)(=O)N2C(=O)CN(c3ccccc3)C2=O)c1`, on Chymotrypsinogen A, the concentration for half-maximal inhibition (IC50) was 0.73 µM.
On to `O=C1CN(c2ncccn2)C(=O)N1S(=O)(=O)c1ccc(Cl)cc1`, for which the IC50 stood at 52 µM at Chymotrypsinogen A and 33 µM on Chymase.
Consider `COc1ccc(N2CC(=O)N(S(=O)(=O)c3ccc(Cl)cc3)C2=O)cc1OC`, for which the IC50 against Chymotrypsinogen A is greater than 100 µM; against Cathepsin G, greater than 100 µM; at Chymase, 14 µM.
`Cc1ccc(N2CC(=O)N(S(=O)(=O)c3ccc(C)c(C)c3)C2=O)cc1C` had an IC50 on Chymotrypsinogen A greater than 100 µM.
With `O=C(O)c1ccc(S(=O)(=O)N2C(=O)CN(c3ccccc3)C2=O)cc1`, the IC50 was 44 µM against Chymotrypsinogen A and 1.9 µM against Cathepsin G.
As for `COC(=O)c1cccc(S(=O)(=O)N2C(=O)CN(c3ccccc3)C2=O)c1`, it took 1.7 µM to reach half-maximal inhibition on Chymotrypsinogen A (IC50).
On to `CN1CCN(C(=O)c2ccc(N3CC(=O)N(S(=O)(=O)c4ccc(Cl)cc4)C3=O)cc2)CC1`, for which the concentration for half-maximal inhibition (IC50) was greater than 100 µM against Chymotrypsinogen A, greater than 100 µM at Cathepsin G and 27 µM at Chymase.
Take `O=C1CN(c2ccccc2)C(=O)N1S(=O)(=O)c1ccc(F)cc1`: the IC50 was determined as 2.6 µM against Chymotrypsinogen A, 1.5 µM at Cathepsin G and 0.37 µM against Chymase.
The compound `O=C1CN(c2ccccc2)C(=O)N1S(=O)(=O)c1ccc(Cl)cc1` displayed a half-maximal inhibitory concentration (IC50) at Chymotrypsinogen A of 1.1 µM. That is a single-digit micromolar value.
With `O=C1CN(C2CCCCC2)C(=O)N1S(=O)(=O)c1ccc(Cl)cc1`, the IC50 is 30 µM against Chymotrypsinogen A and 35 µM on Chymase.
`O=C1CN(c2ccccc2)C(=O)N1C(=O)c1ccccc1`: the concentration for half-maximal inhibition (IC50) at Chymotrypsinogen A is 0.048 µM; against Cathepsin G, 7 µM; at Chymase, 20 µM.
As for `COC(=O)Cc1cccc(S(=O)(=O)N2C(=O)CN(c3ccccc3)C2=O)c1`, the concentration for half-maximal inhibition (IC50) is 4 µM against Chymotrypsinogen A and 5.4 µM against Cathepsin G.
On the same counts, the results for `COc1ccc(S(=O)(=O)N2C(=O)CN(c3ccccc3)C2=O)cc1OC` are greater than 100 µM and 4.1 µM.
`O=C1CN(c2ccccc2)C(=O)N1S(=O)(=O)c1ccc(Br)cc1`: the half-inhibitory concentration (IC50) was 2.4 µM against Chymotrypsinogen A and 0.17 µM against Chymase.
Regarding `O=C(O)c1cccc(S(=O)(=O)N2C(=O)CN(c3ccccc3)C2=O)c1`, the IC50 is 8.5 µM against Chymotrypsinogen A and 1 µM against Cathepsin G.
Consider `CN1CCN(C(=O)c2cccc(S(=O)(=O)N3C(=O)CN(c4ccccc4)C3=O)c2)CC1`, for which the IC50 against Chymotrypsinogen A was 1.4 µM; against Cathepsin G, 4.8 µM; against Chymase, 0.9 µM.
In the case of `O=C(OCN1C(=O)CN(c2ccccc2)C1=O)c1ccccc1`, the IC50 on Chymotrypsinogen A, against Cathepsin G and against Chymase was greater than 100 µM throughout.
Turning to `O=C1CN(S(=O)(=O)c2ccc(Cl)cc2)C(=O)N1c1ccc(Cl)cc1`, the half-maximal inhibitory concentration (IC50) against Chymotrypsinogen A and against Chymase was greater than 100 µM throughout.
Turning to `COc1ccc(S(=O)(=O)N2C(=O)CN(c3ccccc3)C2=O)cc1`, the IC50 at Chymotrypsinogen A is 5.8 µM; at Cathepsin G, 4.2 µM.
Turning to `O=C1CN(c2ccccc2)C(=O)N1S(=O)(=O)Cc1ccccc1`, the values for the IC50 against Chymotrypsinogen A and on Chymase were 37 µM and greater than 100 µM, respectively.
Regarding `Cc1ccc(S(=O)(=O)N2C(=O)CN(c3ccccc3)C2=O)cc1C`, the half-inhibitory concentration (IC50) is 2 µM on Chymotrypsinogen A and 0.03 µM against Chymase.
`COC(=O)Cc1ccc(S(=O)(=O)N2C(=O)CN(c3ccccc3)C2=O)cc1`: the figures for the IC50 against Chymotrypsinogen A and against Cathepsin G were 11 µM and 6.5 µM, respectively.
The compound `COC(=O)c1ccc(S(=O)(=O)N2C(=O)CN(c3ccccc3)C2=O)cc1` had an IC50 against Chymotrypsinogen A of 1.8 µM.
`O=C(O)c1ccc(N2CC(=O)N(S(=O)(=O)c3ccc(Cl)cc3)C2=O)cc1`: the figures for the IC50 against Chymotrypsinogen A and against Cathepsin G were 42 µM and greater than 100 µM, respectively.
On to `O=C1CN(c2ccccc2)C(=O)N1S(=O)(=O)c1cccc(Cl)c1`, for which the IC50 at Chymotrypsinogen A is greater than 100 µM; against Cathepsin G, 2.5 µM; at Chymase, 0.13 µM.
As to `O=C1CN(c2ccccc2)C(=O)N1S(=O)(=O)c1ccc(Oc2ccccc2)cc1`, the IC50 against Chymotrypsinogen A is 8 µM; against Cathepsin G, 3.7 µM.
As for `O=C1CN(c2cccc(Cl)c2)C(=O)N1S(=O)(=O)c1ccc(Cl)cc1`, the IC50 at Chymotrypsinogen A came to 0.2 µM; against Chymase it was 0.066 µM.
For `Cc1ccc(N2CC(=O)N(S(=O)(=O)c3ccc(Cl)c(Cl)c3)C2=O)cc1C`, the IC50 against Chymotrypsinogen A came to 63 µM; at Chymase, 0.02 µM.
As for `O=C1CN(c2ccccc2)C(=O)N1S(=O)(=O)c1ccc(Cl)c(Cl)c1`, the 50% inhibitory concentration (IC50) came out at 3.8 µM at Chymotrypsinogen A and 0.018 µM on Chymase.
With `O=C1CN(c2ccc(Cl)c(Cl)c2)C(=O)N1S(=O)(=O)c1ccc(Cl)cc1`, the half-maximal inhibitory concentration (IC50) against Chymotrypsinogen A was determined as 4 µM; on Cathepsin G, 22 µM; against Chymase, 0.023 µM.
Regarding `O=C1CN(c2ccccc2)C(=O)N1S(=O)(=O)c1ccccc1`, the IC50 against Chymotrypsinogen A was 1.4 µM; against Cathepsin G it was 4.5 µM.
For the compound `O=C1CN(c2ccccn2)C(=O)N1S(=O)(=O)c1ccc(Cl)cc1`, the concentration for half-maximal inhibition (IC50) was greater than 100 µM against Chymotrypsinogen A and 18 µM against Chymase.
For `Cc1ccc(N2CC(=O)N(S(=O)(=O)c3ccc(Cl)cc3)C2=O)cc1C`, the IC50 at Chymotrypsinogen A was determined as 43 µM; on Cathepsin G, 3.7 µM; at Chymase, 0.035 µM.
Regarding `O=C1CN(c2ccccc2)C(=O)N1C(=O)c1ccc(Cl)cc1`, the IC50 on Chymotrypsinogen A is 0.23 µM; against Cathepsin G, 3 µM; at Chymase it was greater than 100 µM.
In the same order, the values of `COc1ccc(S(=O)(=O)N2C(=O)CN(c3ccc(C)c(C)c3)C2=O)cc1OC` are greater than 100 µM, greater than 100 µM and 0.022 µM.
In the same order, the values of `Cc1ccccc1S(=O)(=O)N1C(=O)CN(c2ccccc2)C1=O` are 1.1 µM, 1.8 µM and 1.8 µM.
The compound `O=C(O)c1ccccc1N1CC(=O)N(S(=O)(=O)c2ccc(Cl)cc2)C1=O` gave a half-maximal inhibitory concentration (IC50) on Chymotrypsinogen A of 73 µM.
As to `CN1CCN(C(=O)c2ccc(S(=O)(=O)N3C(=O)CN(c4ccccc4)C3=O)cc2)CC1`, the IC50 came out at 6.4 µM against Chymotrypsinogen A and 3.3 µM against Chymase.
As for `O=C(O)c1cccc(N2CC(=O)N(S(=O)(=O)c3ccc(Cl)cc3)C2=O)c1`, the IC50 against Chymotrypsinogen A and against Cathepsin G was greater than 100 µM each time.
As for `CC(=O)Nc1ccc(N2CC(=O)N(S(=O)(=O)c3ccc(Cl)cc3)C2=O)cc1`, the 50% inhibitory concentration (IC50) against Chymotrypsinogen A, at Cathepsin G and on Chymase was greater than 100 µM in each case.
In the case of `O=C1CN(c2ccccc2Oc2ccccc2)C(=O)N1S(=O)(=O)c1ccc(Cl)cc1`, the values for the IC50 at Chymotrypsinogen A and against Cathepsin G were 37 µM and 5.9 µM, respectively.
The compound `N#Cc1ccc(S(=O)(=O)N2C(=O)CN(c3ccccc3)C2=O)cc1` returned an IC50 on Chymotrypsinogen A of 15 µM.
With `O=C1CN(c2ccccc2)C(=O)N1S(=O)(=O)c1ccc([N+](=O)[O-])cc1`, the values for the IC50 against Chymotrypsinogen A and on Cathepsin G were 8 µM and 6.5 µM, respectively.
Consider `O=C1CN(c2ccccc2)C(=O)N1S(=O)(=O)c1ccccc1Cl`, for which the values for the IC50 on Chymotrypsinogen A, against Cathepsin G and against Chymase were 1.2 µM, 2.2 µM and 1.1 µM, respectively.
